According to patent US7432051B2, “Erythropoietin and erythropoietin receptor expression in human cancer” (The Henry M. Jackson Foundation for the Advancement of …, priority 2000, dated 2008):

Experiments:
[1] = tested on: U251 cells; assay: Chemotherapeutic drug toxicity, cell survival by MTT assay; type: cell-based, human; conditions: serum-free media
Description: (§1) U251 cells were grown in 96-well culture dishes to approximately 85% confluence. Serum was withdrawn overnight and 10 μM Cisplatin was added for twenty-four hours. […] Control groups underwent similar serum withdrawal but no Cisplatin exposure. Where indicated rhEpo or Epoetin-alfa was added thirty minutes prior to the addition of cisplatin. Serum withdrawal studies involved assessment of cell survival forty-eight hours following change to serum-free media. […] Where indicated, Epoetin-alfa, tyrosine kinase inhibitors or PI3K inhibitors were added at the time of change to serum-free media. The Student's T-test was used to determine statistically significant differences between treatment groups.

[2] = tested on: U251 cells; assay: Hypoxia-sensing response (HIF-1α immunoblot, HIF-1 gelshift, RT-PCR and Western blot for Epo/EpoR); type: cell-based, human; conditions: 150 μM DFX, six-hour treatment
Description: Human glioma cell lines (ATCC) and normal human astrocytes (Clonetics) were cultured in Eagle's MEM medium supplemented with 10% fetal bovine serum, and 1% (v/v) penicillin/streptomycin. The cells were grown to 90% confluence in 10 cm culture dishes. For hypoxia treatment, the culture dishes were sealed in modulator incubator chamber, flushed with gas containing 1% oxygen, 5% carbon dioxide, 94% nitrogen for five minutes, and incubated at 37° C. for four to six hours. For desferrioxamine (DFX) treatment, the cells were cultured with same medium containing […] DFX and incubated in cell culture incubator. Paraffin sections (5 μm) of the human GBMs were prepared and stained by immunohistochemistry methods as described previously (Acs et al. (2001) Cancer Res. 61, 3561-3565).
(§2) After the treatments to the cell culture dishes described in Example 10, the cells were washed once with 10 ml cold Dulbecco's phosphate-buffered saline (PBS), scraped into 1.5 ml of PBS on ice, and pelleted by centrifugation at 2,000 rpm for three minutes at 4° C. Cell pellets were washed once with 5 packed cell volumes of buffer A (10 mM Tris-HCl (pH 7.5), 1.5 mM magnesium chloride, 10 mM KCl), freshly supplemented with Complete, EDTA-free Protease Inhibitor Cocktail (Roche) and 2 mM dithiothreitol (DTT)), and resuspended in four packed cell volumes of buffer A. After incubation on ice for 10 min, cell suspension was homogenized with thirty strokes in a glass douncer (Wheaton) with type-b pestle. Nuclei were pelleted at 1,000 rpm for ten minutes and resuspended in four packed nuclear volumes of buffer C (20 mM Tris-HCl (pH 7.5), 0.42 M KCl, 1.5 mM magnesium chloride, 20% glycerol, freshly supplemented with Complete, EDTA-free Protease Inhibitor Cocktail (Roche) and 2 mM DTT), and rotated for thirty minutes at 4° C. After centrifugation at 1,400 rpm for thirty minutes, the nuclear extracts were aliquoted and stored at −80° C. Protein concentration was determined by the method of Bradford with a commercial kit (Bio-Rad) using bovine serum albumin as standard. HIF-1α protein was detected by immunoblot analysis. Twenty five to thirty μg of nuclear extracts were boiled for five minutes in 2× denaturing buffer, and loaded onto SDS-7% polyacrylamide gels. After transfer, membranes were blocked with 5% milk in TBST (10 mM Tris-HCl, 150 mM NaCl, 0.1% Tween, pH 7.8) for one and a half hours at room temperature and subsequently incubated with mouse monoclonal HIF-1α antibody (Transduction Labs) for two hours. The membranes were washed with TBST three times and incubated with horseradish peroxidase-conjugated secondary antibody. Then, the membranes were washed three times with TBST and analyzed by enhanced chemiluminescence (Pierce). Analysis of EpoR and phosphotyrosine immunoreactivity was performed as reported previously (Acs et al. (2001) Cancer Res. 61, 3561-3565).
Oligonucleotide probe was generated by 5′ end labeling of the sense strand with gamma-[^32P]ATP (Dupont-NEN) and T4 polynucleotide kinase (Gibco-BRL), annealing to a ten-fold excess of antisense strand, and purification by using NucTrap Probe Purification Column (Stratagene). Binding reactions were carried out in a total volume of 20 μl containing 7.0 μg of nuclear extract and 0.2 μg of calf thymus DNA in buffer Z (20 mM Tris-HCl (pH 7.5), 0.1 M KCl, 0.2 mM EDTA, 20% glycerol, freshly supplemented with 2 mM DTT, 0.4 mM PMSF and 1 mM Na3PO4). […]

[3] = tested on: U251 cells; assay: Serum withdrawal cell survival; type: cell-based, human; conditions: inhibitor added at change to serum-free media, forty-eight hours
Description: as §1

[4] = tested on: cell lines derived from a wide range of tumors including two breast cancer cell lines; conditions: in particular low doses of erythropoietin; cited from earlier work
[5] = tested on: MCF-7 cells; assay: Western blot of phosphotyrosine containing proteins; type: cell-based, human; conditions: five minute incubation; 250 units/ml rhEpo or 10 μM Epo mimetic peptide
[6] = tested on: U251 cells; assay: Western blot of EpoR associated signaling (tyrosine phosphorylation, Jak-2, STAT-5, Akt); type: cell-based, human
Description: as §2
Using the Western blotting techniques described in Example 11 above, the immunoreactive EpoR expressed in human gliomas was further tested to see if it was functional. Cultured U251 cells were stimulated with recombinant human erythropoietin. […] Tyrosine phosphorylation could also be elicited by an Epo-mimetic peptide (EMP) and by Epoetin-alfa, the clinically used form of Epo (FIG. 11B). Using phospho-specific antibodies, we also detected rhEpo stimulated Jak-2 and STAT-5 tyrosine phosphorylation as well as phosphorylation of Akt (FIG. 12C).

[7] = tested on: MCF-7 cells; assay: 3H-thymidine incorporation assay of DNA synthesis; type: cell-based, human
Description: (§3) To determine whether Epo exerts trophic effects on breast cancer cell lines, the effect of exogenously added Epo on DNA synthesis was examined in MCF-7 and BT-549 cells. DNA synthesis was measured using a ^3H-thymidine incorporation assay. Breast cancer cells plated in six well plates in one ml DMEM supplemented with 20% fetal bovine serum per well were allowed to incubate for sixteen hours. Cells were switched to one ml phenol-free DMEM at the time of treatments. recombinant human Epo (rhEpo) (10 units), or either anti-Epo or anti-EpoR antibodies ([…]) was then added directly to the medium and the cells cultured for another sixteen hours. Thymidine labeling was performed by adding one […] (NEN Life Sciences) for one hour and DNA associated counts were then determined by liquid scintillation as described (Assandri et al. (1999) J. Physiol. 516, 343-352).

[8] = tested on: BT-549 cells; assay: 3H-thymidine incorporation assay of DNA synthesis; type: cell-based, human
Description: as §3

[9] = 10 units/ml exogenous rhEpo, p<0.01
[10] = rhEpo (10 units) in one ml medium, sixteen hours, p<0.01

## N.N.[Cl][Pt][Cl] [Cisplatin, reference compound]
[1]; 10 μM Cisplatin, overnight / twenty-four hours
  cells killed (cell death): approximately 80%
[1]; Cisplatin overnight
  survival fraction: 0.2

## CC(=O)N(O)CCCCCNC(=O)CCC(=O)N(O)CCCCCNC(=O)CCC(=O)N(O)CCCCCN [DFX, desferrioximine]
[2]
  Epo mRNA expression (RT-PCR): prominent induction
  EpoR mRNA expression (RT-PCR): not induced
  HIF-1 gelshift activity: dramatically upregulating
  immunoreactive EpoR protein levels: enhanced
  level of HIF-1α protein: dramatically upregulating

## O=c1c(-c2ccc(O)cc2)coc2cc(O)cc(O)c12 [Genistein, reference compound]
[3]
  effect on the protective effect of Epoetin-alfa: blocked

## rhEpo: recombinant human Epo (rhEpo), R & D systems
[4]
  stimulation of cancer cell proliferation: no significant stimulation
[5]
  levels of phosphotyrosine containing proteins versus basal: markedly enhanced
[6]; phospho-specific antibodies
  Jak-2 tyrosine phosphorylation: stimulated
  STAT-5 tyrosine phosphorylation: stimulated
  phosphorylation of the PI3K substrate Akt: stimulated
[6]; serum free media, rhEpo 10 U/ml single dose, EMP and Epoetin-alfa thirty minute treatments
  tyrosine phosphorylation in several proteins: prominent, rapid, and long lasting activation
[6]; single dose 10 U/ml rhEpo
  duration of tyrosine phosphorylation: more than two hours
  onset of tyrosine phosphorylation: within one minute
[7]; [9]
  enhancement of 3H-thymidine incorporation: about 25%
[7]; rhEpo 100 units/ml (FIG. 2)
  3H-thymidine incorporation, effect in words: enhanced
[7]; [10]
  potentiation of DNA synthesis: approximately 20%
[8]; [9]
  enhancement of 3H-thymidine incorporation: about 25%
[8]; rhEpo 100 units/ml (FIG. 2)
  3H-thymidine incorporation, effect in words: enhanced
[8]; [10]
  potentiation of DNA synthesis: approximately 20%
